Source: the CheMixHub ionic liquid set
± gives the uncertainty stated by the source.

Test: xn = mol fraction of the nth substance listed

CC[n+]1ccn(CCOC)c1.O=S(=O)([N-]S(=O)(=O)C(F)(F)F)C(F)(F)F + CO
100 kPa
Settings	viscosity [mPa·s]
288.15 K, x1 = 0.2999	7.19 ± 0.17
288.15 K, x1 = 0.5	15.9 ± 0.29
288.15 K, x1 = 0.5984	22.75 ± 0.39
288.15 K, x1 = 0.7934	37.29 ± 0.54
293.15 K, x1 = 1	43.63 ± 0.49
298.15 K, x1 = 0.1	1.627 ± 0.06
298.15 K, x1 = 0.2999	5.44 ± 0.12
303.15 K, x1 = 0.2999	4.8 ± 0.1
303.15 K, x1 = 0.5	9.83 ± 0.17
303.15 K, x1 = 1	29.33 ± 0.33
308.15 K, x1 = 0.1997	2.658 ± 0.067
308.15 K, x1 = 0.2999	4.263 ± 0.09
308.15 K, x1 = 0.3966	6.33 ± 0.11
308.15 K, x1 = 0.5984	12 ± 0.19
308.15 K, x1 = 0.7934	18.08 ± 0.24
313.15 K, x1 = 0.5984	10.42 ± 0.17
313.15 K, x1 = 0.6953	13.27 ± 0.18
313.15 K, x1 = 0.7934	15.68 ± 0.2
318.15 K, x1 = 0.2999	3.449 ± 0.07

C[N+](C)(C)CCC[n+]1ccccc1.N#C[N-]C#N.N#C[N-]C#N + CO
100 kPa
Settings	viscosity [mPa·s]
293.15 K, x1 = 0.3999	69.9 ± 7
293.15 K, x1 = 0.8995	950 ± 130
303.15 K, x1 = 0.5002	78.6 ± 7.9
303.15 K, x1 = 0.7003	184 ± 20
313.15 K, x1 = 0.0999	3.18 ± 0.32
313.15 K, x1 = 0.3999	31.9 ± 3.2
313.15 K, x1 = 0.5002	53.3 ± 5.3
313.15 K, x1 = 0.7998	145 ± 15
313.15 K, x1 = 1	386 ± 46
323.15 K, x1 = 0.3002	13.6 ± 1.4
323.15 K, x1 = 0.3999	23.6 ± 2.4
323.15 K, x1 = 0.5002	38.3 ± 3.8
323.15 K, x1 = 0.6001	54.1 ± 5.4
333.15 K, x1 = 0.0999	2.54 ± 0.26
333.15 K, x1 = 0.2001	6.12 ± 0.62
333.15 K, x1 = 0.3999	18.5 ± 1.9
333.15 K, x1 = 0.6001	38.5 ± 3.9

CC(=O)[O-].CCCCCCCCCCCCCC[P+](CCCCCC)(CCCCCC)CCCCCC + COCCOCCOCCOCCOC
100 kPa
Settings	viscosity [mPa·s]
278.15 K, x2 = 0.207	651 ± 35
278.15 K, x2 = 0.499	176 ± 5
283.15 K, x2 = 0.207	462 ± 22
288.15 K, x2 = 0.103	549 ± 28
288.15 K, x2 = 0.4	145 ± 4
298.15 K, x2 = 0.103	287 ± 11
298.15 K, x2 = 0.4	88 ± 1
313.15 K, x2 = 0.103	130 ± 3

NC(=O)C(F)(F)F + C[P+](c1ccccc1)(c1ccccc1)c1ccccc1.[Br-]
288.15 K, 101.3 kPa, x1 = 0.889
Settings	electrical conductivity [S/m]	viscosity [mPa·s]
–	0.035 ± 0.014	410

CCCCCC[n+]1ccn(C)c1.[Cl-] + O
Settings	electrical conductivity [S/m]	viscosity [mPa·s]
278.15 K, 100 kPa, x1 = 8.613e-05	–	1.531 ± 0.011
278.15 K, 100 kPa, x1 = 0.0001839	–	1.539 ± 0.011
278.15 K, 100 kPa, x1 = 0.0003576	–	1.551 ± 0.012
278.15 K, 100 kPa, x1 = 0.0005405	–	1.562 ± 0.012
278.15 K, 100 kPa, x1 = 0.000744	–	1.573 ± 0.012
278.15 K, 100 kPa, x1 = 0.0009399	–	1.585 ± 0.012
278.15 K, 100 kPa, x1 = 0.001103	–	1.596 ± 0.012
278.15 K, 100 kPa, x1 = 0.001379	–	1.613 ± 0.012
278.15 K, 100 kPa, x1 = 0.001677	–	1.641 ± 0.012
283.15 K, 100 kPa, x1 = 8.613e-05	–	1.314 ± 0.01
283.15 K, 100 kPa, x1 = 0.0001839	–	1.32 ± 0.01
283.15 K, 100 kPa, x1 = 0.0003576	–	1.329 ± 0.01
283.15 K, 100 kPa, x1 = 0.0005405	–	1.337 ± 0.01
283.15 K, 100 kPa, x1 = 0.000744	–	1.348 ± 0.01
283.15 K, 100 kPa, x1 = 0.0009399	–	1.358 ± 0.01
283.15 K, 100 kPa, x1 = 0.001103	–	1.369 ± 0.01
283.15 K, 100 kPa, x1 = 0.001379	–	1.381 ± 0.01
283.15 K, 100 kPa, x1 = 0.001677	–	1.401 ± 0.011
288.15 K, 100 kPa, x1 = 8.613e-05	–	1.145 ± 0.009
288.15 K, 100 kPa, x1 = 0.0001839	–	1.15 ± 0.009
288.15 K, 100 kPa, x1 = 0.0003576	–	1.158 ± 0.009
288.15 K, 100 kPa, x1 = 0.0005405	–	1.166 ± 0.009
288.15 K, 100 kPa, x1 = 0.000744	–	1.174 ± 0.009
288.15 K, 100 kPa, x1 = 0.0009399	–	1.181 ± 0.009
288.15 K, 100 kPa, x1 = 0.001103	–	1.188 ± 0.009
288.15 K, 100 kPa, x1 = 0.001379	–	1.2 ± 0.009
288.15 K, 100 kPa, x1 = 0.001677	–	1.219 ± 0.009
293.15 K, 100 kPa, x1 = 8.613e-05	–	1.008 ± 0.008
293.15 K, 100 kPa, x1 = 0.0001839	–	1.013 ± 0.008
293.15 K, 100 kPa, x1 = 0.0003576	–	1.019 ± 0.008
293.15 K, 100 kPa, x1 = 0.0005405	–	1.025 ± 0.008
293.15 K, 100 kPa, x1 = 0.000744	–	1.033 ± 0.008
293.15 K, 100 kPa, x1 = 0.0009399	–	1.039 ± 0.008
293.15 K, 100 kPa, x1 = 0.001103	–	1.044 ± 0.008
293.15 K, 100 kPa, x1 = 0.001379	–	1.054 ± 0.008
293.15 K, 100 kPa, x1 = 0.001677	–	1.069 ± 0.008
298.15 K, 100 kPa, x1 = 0.0001839	–	0.899 ± 0.007
298.15 K, 100 kPa, x1 = 0.0003576	–	0.905 ± 0.007
298.15 K, 100 kPa, x1 = 0.0005405	–	0.911 ± 0.007
298.15 K, 100 kPa, x1 = 0.000744	–	0.917 ± 0.007
298.15 K, 100 kPa, x1 = 0.0009399	–	0.922 ± 0.007
298.15 K, 100 kPa, x1 = 0.001103	–	0.928 ± 0.007
298.15 K, 100 kPa, x1 = 0.001379	–	0.936 ± 0.007
298.15 K, 100 kPa, x1 = 0.001677	–	0.949 ± 0.007
298.15 K, 101.3 kPa, x1 = 4.23e-06	0.00276 ± 3e-05	–
298.15 K, 101.3 kPa, x1 = 7.11e-06	0.00451 ± 5e-05	–
298.15 K, 101.3 kPa, x1 = 1.01e-05	0.00631 ± 6e-05	–
298.15 K, 101.3 kPa, x1 = 1.293e-05	0.008 ± 8e-05	–
298.15 K, 101.3 kPa, x1 = 1.551e-05	0.00953 ± 0.0001	–
298.15 K, 101.3 kPa, x1 = 1.836e-05	0.01121 ± 0.00011	–
298.15 K, 101.3 kPa, x1 = 2.116e-05	0.0129 ± 0.00013	–
298.15 K, 101.3 kPa, x1 = 2.393e-05	0.0145 ± 0.00015	–
298.15 K, 101.3 kPa, x1 = 2.652e-05	0.016 ± 0.00016	–
298.15 K, 101.3 kPa, x1 = 2.919e-05	0.0175 ± 0.00018	–
303.15 K, 100 kPa, x1 = 8.613e-05	–	0.802 ± 0.006
303.15 K, 100 kPa, x1 = 0.0001839	–	0.805 ± 0.006
303.15 K, 100 kPa, x1 = 0.0003576	–	0.81 ± 0.006
303.15 K, 100 kPa, x1 = 0.0005405	–	0.815 ± 0.006
303.15 K, 100 kPa, x1 = 0.000744	–	0.82 ± 0.006
303.15 K, 100 kPa, x1 = 0.0009399	–	0.825 ± 0.006
303.15 K, 100 kPa, x1 = 0.001103	–	0.829 ± 0.006
303.15 K, 100 kPa, x1 = 0.001379	–	0.836 ± 0.006
303.15 K, 100 kPa, x1 = 0.001677	–	0.847 ± 0.007
308.15 K, 100 kPa, x1 = 8.613e-05	–	0.723 ± 0.006
308.15 K, 100 kPa, x1 = 0.0001839	–	0.726 ± 0.006
308.15 K, 100 kPa, x1 = 0.0003576	–	0.73 ± 0.006
308.15 K, 100 kPa, x1 = 0.0005405	–	0.734 ± 0.006
308.15 K, 100 kPa, x1 = 0.000744	–	0.739 ± 0.006
308.15 K, 100 kPa, x1 = 0.0009399	–	0.743 ± 0.006
308.15 K, 100 kPa, x1 = 0.001103	–	0.747 ± 0.006
308.15 K, 100 kPa, x1 = 0.001379	–	0.753 ± 0.006
308.15 K, 100 kPa, x1 = 0.001677	–	0.762 ± 0.006
313.15 K, 100 kPa, x1 = 8.613e-05	–	0.656 ± 0.005
313.15 K, 100 kPa, x1 = 0.0001839	–	0.659 ± 0.005
313.15 K, 100 kPa, x1 = 0.0003576	–	0.662 ± 0.005
313.15 K, 100 kPa, x1 = 0.0005405	–	0.666 ± 0.005
313.15 K, 100 kPa, x1 = 0.000744	–	0.67 ± 0.005
313.15 K, 100 kPa, x1 = 0.0009399	–	0.673 ± 0.005
313.15 K, 100 kPa, x1 = 0.001103	–	0.677 ± 0.005
313.15 K, 100 kPa, x1 = 0.001379	–	0.683 ± 0.005
313.15 K, 100 kPa, x1 = 0.001677	–	0.691 ± 0.005
